Measurements: doi:10.1101/116368v1 (biorxiv, 2017)

Molecular target: T1, STARD1 (StAR), STARD1^S195E, residues 66-285 (Homo sapiens, UniProt P49675, S195E)
T1 sequence (P49675 66-285 S195E): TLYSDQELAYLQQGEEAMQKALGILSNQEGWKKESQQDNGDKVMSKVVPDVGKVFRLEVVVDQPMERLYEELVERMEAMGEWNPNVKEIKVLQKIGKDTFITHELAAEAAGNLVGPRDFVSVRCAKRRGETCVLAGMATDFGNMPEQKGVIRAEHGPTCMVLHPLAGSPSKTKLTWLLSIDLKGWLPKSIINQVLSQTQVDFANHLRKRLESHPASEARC
Assay: NBD fluorescence titration, quadratic fit
Format: binding

| Compound | Kd [µM] |
| --- | --- |
| CC(C)CCC[C@@H](C)[C@H]1CC[C@H]2[C@@H]3CCC4CC(Nc5ccc([N+](=O)[O-])c6nonc56)CC[C@]4(C)[C@H]3CC[C@]12C (some centres unmarked) [3NC, 3-(NBDamino)-cholestane] | 0.302 ± 0.029 |
| CC(Nc1ccc([N+](=O)[O-])c2nonc12)[C@H]1CC[C@H]2[C@@H]3CC=C4C[C@@H](O)CC[C@]4(C)[C@H]3CC[C@]12C (some centres unmarked) [20NP, 20-((NBDamino)-pregn-5-en-3-ol] | 0.026 ± 0.008 |
